# Measured values: the NIST ThermoML archive (doi:10.1016/j.jct.2012.06.009)
# ± gives the expanded uncertainty stated by the source.
# Assay: activity coefficient (dimensionless); of the first substance listed, at infinite dilution; xn = mol fraction of the nth substance listed
# Details: 101 kPa, Liquid, Chromatography, x1 = 0
activity coefficient (314.24 K),activity coefficient (333.26 K),activity coefficient (333.38 K),activity coefficient (353.25 K),activity coefficient (353.3 K),activity coefficient (314.1 K),Structure (SMILES),also measured
1.22 ± 0.1,1.2 ± 0.1,1.19 ± 0.099,1.18 ± 0.098,1.18 ± 0.097,,CCc1ccccc1 [ethylbenzene] + CCCCCCCCCCCC(=O)O,
,,,,,,CCc1ccccc1 [ethylbenzene] + CCCCCCCCCCCCCC(=O)O,activity coefficient (338.27 K): 1.06 ± 0.087; activity coefficient (348.3 K): 1.06 ± 0.087; activity coefficient (358.33 K): 1.04 ± 0.085
,,,,,,CCc1ccccc1 [ethylbenzene] + CCCCCCCCCCCCCCCC(=O)O,activity coefficient (340.19 K): 1.04 ± 0.085; activity coefficient (348.01 K): 1.05 ± 0.086; activity coefficient (358.22 K): 1.06 ± 0.087
1.9 ± 0.16,1.83 ± 0.16,1.82 ± 0.16,,1.75 ± 0.15,1.87 ± 0.16,CCCCCCC [heptane] + CCCCCCCCCC(=O)O,
1.67 ± 0.14,1.67 ± 0.14,1.66 ± 0.14,1.59 ± 0.14,1.62 ± 0.14,1.65 ± 0.14,CCCCCCC [heptane] + CCCCCCCCCCCC(=O)O,
1.47 ± 0.12,,1.43 ± 0.12,1.4 ± 0.12,1.4 ± 0.12,1.45 ± 0.12,CCCCCCC [heptane] + CCCCCCCCCCCCCC(=O)O,
,,,,,,CCCCCCC [heptane] + CCCCCCCCCCCCCCCC(=O)O,activity coefficient (340.19 K): 1.4 ± 0.12; activity coefficient (348.01 K): 1.38 ± 0.12; activity coefficient (358.22 K): 1.37 ± 0.12
1.56 ± 0.13,1.5 ± 0.13,1.49 ± 0.13,,1.43 ± 0.12,,C=CCCCC [hex-1-ene] + CCCCCCCCCC(=O)O,
,,,,,,C=CCCCC [hex-1-ene] + CCCCCCCCCCCC(=O)O,activity coefficient (329.2 K): 1.39 ± 0.12; activity coefficient (343.39 K): 1.39 ± 0.12; activity coefficient (358.06 K): 1.34 ± 0.11
1.24 ± 0.1,1.22 ± 0.1,1.21 ± 0.1,,1.18 ± 0.098,,C=CCCCC [hex-1-ene] + CCCCCCCCCCCCCC(=O)O,
,,,,,,C=CCCCC [hex-1-ene] + CCCCCCCCCCCCCCCC(=O)O,activity coefficient (340.17 K): 1.17 ± 0.097; activity coefficient (348.01 K): 1.18 ± 0.098; activity coefficient (358.22 K): 1.2 ± 0.1
1.77 ± 0.15,1.73 ± 0.15,1.7 ± 0.14,,1.65 ± 0.14,1.75 ± 0.15,CCCCCC [hexane] + CCCCCCCCCC(=O)O,
1.57 ± 0.13,1.53 ± 0.13,1.54 ± 0.13,1.5 ± 0.13,,,CCCCCC [hexane] + CCCCCCCCCCCC(=O)O,
,,,,,,CCCCCC [hexane] + CCCCCCCCCCCCCC(=O)O,activity coefficient (338.27 K): 1.34 ± 0.11; activity coefficient (348.3 K): 1.33 ± 0.11; activity coefficient (358.33 K): 1.33 ± 0.11
,,,,,,CCCCCC [hexane] + CCCCCCCCCCCCCCCC(=O)O,activity coefficient (340.19 K): 1.29 ± 0.11; activity coefficient (348.01 K): 1.3 ± 0.11; activity coefficient (358.22 K): 1.3 ± 0.11
2.14 ± 0.18,,1.84 ± 0.16,,1.57 ± 0.13,,CO [methanol] + CCCCCCCCCC(=O)O,activity coefficient (353.08 K): 1.46 ± 0.12
,1.67 ± 0.14,,,1.58 ± 0.13,1.81 ± 0.15,CO [methanol] + CCCCCCCCCCCC(=O)O,activity coefficient (328.82 K): 1.9 ± 0.16; activity coefficient (343.65 K): 1.66 ± 0.14

activity coefficient (314.24 K),activity coefficient (333.26 K),activity coefficient (333.38 K),activity coefficient (353.25 K),activity coefficient (353.3 K),activity coefficient (314.1 K),Structure (SMILES),also measured
1.92 ± 0.17,1.73 ± 0.15,1.71 ± 0.15,,1.56 ± 0.13,,CO [methanol] + CCCCCCCCCCCCCC(=O)O,activity coefficient (338.29 K): 2 ± 0.17; activity coefficient (358.31 K): 1.6 ± 0.14
,,,,,,CO [methanol] + CCCCCCCCCCCCCCCC(=O)O,activity coefficient (340.17 K): 2.09 ± 0.18; activity coefficient (347.93 K): 1.94 ± 0.17; activity coefficient (358.23 K): 1.8 ± 0.15
1.92 ± 0.17,1.57 ± 0.13,1.6 ± 0.14,1.41 ± 0.12,1.35 ± 0.12,1.89 ± 0.16,CCCO [propan-1-ol] + CCCCCCCCCC(=O)O,
1.78 ± 0.15,1.57 ± 0.13,1.6 ± 0.14,1.43 ± 0.12,1.43 ± 0.12,1.76 ± 0.15,CCCO [propan-1-ol] + CCCCCCCCCCCC(=O)O,
1.65 ± 0.14,1.52 ± 0.13,1.51 ± 0.13,1.37 ± 0.12,1.37 ± 0.12,1.61 ± 0.14,CCCO [propan-1-ol] + CCCCCCCCCCCCCC(=O)O,
,,,,,,CCCO [propan-1-ol] + CCCCCCCCCCCCCCCC(=O)O,activity coefficient (340.19 K): 1.74 ± 0.15; activity coefficient (348.01 K): 1.63 ± 0.14; activity coefficient (358.32 K): 1.5 ± 0.13
1.58 ± 0.13,1.35 ± 0.11,1.36 ± 0.11,1.2 ± 0.1,1.15 ± 0.097,1.56 ± 0.13,CC(C)O [propan-2-ol] + CCCCCCCCCC(=O)O,
1.53 ± 0.13,1.33 ± 0.11,1.37 ± 0.12,1.22 ± 0.1,1.24 ± 0.1,1.5 ± 0.13,CC(C)O [propan-2-ol] + CCCCCCCCCCCC(=O)O,
1.42 ± 0.12,1.3 ± 0.11,1.3 ± 0.11,1.19 ± 0.099,1.19 ± 0.099,1.39 ± 0.12,CC(C)O [propan-2-ol] + CCCCCCCCCCCCCC(=O)O,
,,,,,,CC(C)O [propan-2-ol] + CCCCCCCCCCCCCCCC(=O)O,activity coefficient (340.19 K): 1.47 ± 0.12; activity coefficient (348.01 K): 1.41 ± 0.12; activity coefficient (358.32 K): 1.29 ± 0.11
,,,,,,Cc1ccccc1 [toluene] + CCCCCCCCCCCCCC(=O)O,activity coefficient (338.27 K): 0.926 ± 0.076; activity coefficient (338.29 K): 1.01 ± 0.083; activity coefficient (348.2 K): 0.958 ± 0.079; activity coefficient (358.33 K): 0.93 ± 0.077
,,,,,,Cc1ccccc1 [toluene] + CCCCCCCCCCCCCCCC(=O)O,activity coefficient (340.19 K): 0.934 ± 0.077; activity coefficient (348.01 K): 0.935 ± 0.077; activity coefficient (358.22 K): 0.934 ± 0.077
,,,,,,ClC=C(Cl)Cl [trichloroethene] + CCCCCCCCCCCCCCCC(=O)O,activity coefficient (340.19 K): 0.831 ± 0.069; activity coefficient (348.01 K): 0.826 ± 0.069; activity coefficient (358.22 K): 0.831 ± 0.069
0.846 ± 0.07,0.85 ± 0.071,0.827 ± 0.069,,0.825 ± 0.069,0.823 ± 0.069,ClC(Cl)Cl [trichloromethane] + CCCCCCCCCC(=O)O,
0.81 ± 0.068,0.832 ± 0.069,0.818 ± 0.068,,0.839 ± 0.07,0.81 ± 0.068,ClC(Cl)Cl [trichloromethane] + CCCCCCCCCCCC(=O)O,
0.743 ± 0.063,0.739 ± 0.063,0.74 ± 0.063,0.746 ± 0.064,0.727 ± 0.062,0.743 ± 0.063,ClC(Cl)Cl [trichloromethane] + CCCCCCCCCCCCCC(=O)O,
,,,,,,ClC(Cl)Cl [trichloromethane] + CCCCCCCCCCCCCCCC(=O)O,activity coefficient (340.19 K): 0.748 ± 0.063; activity coefficient (348.01 K): 0.739 ± 0.063; activity coefficient (358.22 K): 0.759 ± 0.064

Structure (SMILES),activity coefficient (314.24 K),activity coefficient (333.26 K),activity coefficient (333.38 K),activity coefficient (353.25 K),activity coefficient (353.3 K),activity coefficient (314.1 K),also measured
Cc1ccccc1 [toluene] + CCCCCCCCCC(=O)O,1.17 ± 0.097,1.12 ± 0.093,1.12 ± 0.092,1.14 ± 0.095,1.16 ± 0.096,1.15 ± 0.095,
Cc1ccccc1 [toluene] + CCCCCCCCCCCC(=O)O,1.08 ± 0.089,1.07 ± 0.088,1.04 ± 0.086,,1.05 ± 0.087,1.06 ± 0.088,
ClC=C(Cl)Cl [trichloroethene] + CCCCCCCCCC(=O)O,1.04 ± 0.085,1 ± 0.082,1.01 ± 0.083,,0.969 ± 0.08,1.05 ± 0.086,activity coefficient (353.08 K): 0.945 ± 0.078
ClC=C(Cl)Cl [trichloroethene] + CCCCCCCCCCCC(=O)O,0.967 ± 0.079,0.944 ± 0.078,0.951 ± 0.078,0.933 ± 0.077,,0.952 ± 0.078,
ClC=C(Cl)Cl [trichloroethene] + CCCCCCCCCCCCCC(=O)O,0.843 ± 0.07,0.842 ± 0.07,0.838 ± 0.07,0.842 ± 0.07,0.824 ± 0.069,0.847 ± 0.07,
